Assay results as given in ChEMBL document CHEMBL5113408, “Design, synthesis and antitumour activity of novel 5(6)-amino-benzimidazolequinones containing a fused morpholine” (Eur J Med Chem, 2022).

Assays:
Assay type in all cases: functional, cell-based
ECa-109 cell line = assay: Antiproliferative activity against human EC109 cells assessed as inhibition of cell growth by SRB assay
MGC-803 = assay: Antiproliferative activity against human MGC-803 cells assessed as inhibition of cell growth by SRB assay
HeLa = assay: Antiproliferative activity against human HeLa cells assessed as inhibition of cell growth by SRB assay
MCF7 = assay: Antiproliferative activity against human MCF7 cells assessed as inhibition of cell growth by SRB assay

Compound | IC50 (ECa-109 cell line) | IC50 (MGC-803) | IC50 (HeLa) | IC50 (MCF7)
O=C1C=C(Nc2ccc(Br)cc2)C(=O)c2c1nc1n2C[C@@H]([C@H](O)CO)OC1 | 8.25 µM | 2750 nM | 4.22 µM | 6.13 µM
O=C1C(Nc2ccccc2)=CC(=O)c2c1nc1n2[C@H]2OC[C@@H](O)[C@H]2OC1 | 3.56 µM | 1830 nM | > 8 µM | > 4 µM
O=C1C(NC2CCCC2)=CC(=O)c2c1nc1n2[C@H]2OC[C@@H](O)[C@H]2OC1 | > 16 µM | > 16000 nM | > 16 µM | > 16 µM
COc1cccc(NC2=CC(=O)c3c(nc4n3C[C@@H]([C@H](O)CO)OC4)C2=O)c1 | 6.95 µM | 3580 nM | 6.14 µM | 6.61 µM
CCOc1ccc(NC2=CC(=O)c3c(nc4n3[C@H]3OC[C@@H](O)[C@H]3OC4)C2=O)cc1 | > 4 µM | 2090 nM | 14.4 µM | > 4 µM
COc1ccc(NC2=CC(=O)c3nc4n(c3C2=O)C[C@@H]([C@H](O)CO)OC4)cc1 | > 16 µM | 8900 nM | 7.15 µM | > 16 µM
O=C1C(Nc2cccc(Cl)c2)=CC(=O)c2c1nc1n2C[C@@H]([C@H](O)CO)OC1 | 5.99 µM | 2890 nM | 13.8 µM | 5.77 µM
COc1cccc(NC2=CC(=O)c3nc4n(c3C2=O)[C@H]2OC[C@@H](O)[C@H]2OC4)c1 | 7.62 µM | 1780 nM | 4.28 µM | > 4 µM
CCOc1ccc(NC2=CC(=O)c3nc4n(c3C2=O)C[C@@H]([C@H](O)CO)OC4)cc1 | 9.88 µM | 4310 nM | 4.12 µM | 11.3 µM
O=C1C(Nc2ccccc2)=CC(=O)c2c1nc1n2C[C@@H]([C@H](O)CO)OC1 | 8.38 µM | 4670 nM | 9.01 µM | 6.91 µM
CCN(CC)C1=CC(=O)c2c(nc3n2[C@H]2OC[C@@H](O)[C@H]2OC3)C1=O |  | > 16000 nM | > 16 µM | > 16 µM
Cc1ccc(NC2=CC(=O)c3nc4n(c3C2=O)C[C@@H]([C@H](O)CO)OC4)cc1C | 6.74 µM | 2590 nM | 4.5 µM | 6.26 µM
O=C1C=C(NCc2ccccc2)C(=O)c2c1nc1n2[C@H]2OC[C@@H](O)[C@H]2OC1 | > 8 µM | 2670 nM | > 8 µM | > 8 µM
O=C1C(NC2CC2)=CC(=O)c2c1nc1n2[C@H]2OC[C@@H](O)[C@H]2OC1 |  | > 4000 nM | > 16 µM | > 16 µM
O=c1[nH]cc(F)c(=O)[nH]1 [FLUOROURACIL] | 11.4 µM | 10300 nM | 24.3 µM | 
CCc1ccc(NC2=CC(=O)c3nc4n(c3C2=O)C[C@@H]([C@H](O)CO)OC4)cc1 | 4.87 µM | 2860 nM | 2.41 µM | 6.73 µM
O=C1C=C(N2CCC2)C(=O)c2c1nc1n2[C@H]2OC[C@@H](O)[C@H]2OC1 | > 16 µM | > 16000 nM | > 16 µM | > 16 µM
CCOc1ccccc1NC1=CC(=O)c2nc3n(c2C1=O)[C@H]1OC[C@@H](O)[C@H]1OC3 | 4.63 µM | 2450 nM | 6.04 µM | > 4 µM
COc1ccccc1NC1=CC(=O)c2nc3n(c2C1=O)C[C@@H]([C@H](O)CO)OC3 | > 16 µM | 6610 nM | 6.42 µM | > 16 µM
COc1ccccc1NC1=CC(=O)c2c(nc3n2C[C@@H]([C@H](O)CO)OC3)C1=O | 7.64 µM | 4420 nM | 8.97 µM | 6.81 µM
O=C1C(Nc2ccc(I)cc2)=CC(=O)c2c1nc1n2[C@H]2OC[C@@H](O)[C@H]2OC1 | 2.53 µM | 2150 nM | 4.01 µM | 3.89 µM
O=C1C=C(Nc2cccc(F)c2)C(=O)c2c1nc1n2[C@H]2OC[C@@H](O)[C@H]2OC1 | 7.03 µM | 2180 nM | 6.44 µM | 5.5 µM
O=C1C(N2CCC2)=CC(=O)c2c1nc1n2[C@H]2OC[C@@H](O)[C@H]2OC1 | > 16 µM | > 16000 nM | > 16 µM | > 16 µM
Cc1ccc(NC2=CC(=O)c3nc4n(c3C2=O)[C@H]2OC[C@@H](O)[C@H]2OC4)cc1 | 3.48 µM | 1420 nM | 3.86 µM | 1.66 µM
CCCc1ccc(NC2=CC(=O)c3c(nc4n3[C@H]3OC[C@@H](O)[C@H]3OC4)C2=O)cc1 | > 4 µM | 1920 nM | 6.03 µM | > 4 µM
O=C1C=C(Nc2cccc(F)c2)C(=O)c2c1nc1n2C[C@@H]([C@H](O)CO)OC1 | 7.93 µM | 4460 nM | 6.59 µM | > 16 µM
